# Test results as given in patent US5665586A, “Protease from Streptomyces fradiae” (Shionogi & Co., Ltd., priority 1992, dated 1997).
# Like-named read-outs stand apart in the source and are kept apart here. Where a SMILES comes first, the peptide text is derived from it. The star is where a group is joined. pNA = O=[N+]([O-])c1ccc(N*)cc1; Cbz = O=C(OCc1ccccc1)*; Boc = CC(C)(C)OC(=O)*; CH2Cl = ClC*
# Key:
# SFase [1] = target: T1, SFase (Streptomyces fradiae, UniProt Q03424); experiment: Effect of inhibitors on SFase (residual activity, substrate Z-Phe-Leu-Glu-pNA); format: biochemical
# SFase [2] = target: T1, SFase; experiment: Substrate specificity of SFase on synthetic pNA substrates (p-nitroaniline release, A410 nm); format: biochemical; settings: 50 mM Tris-HCl, 2 mM CaCl2, pH 7.5, 25° C.
# Protocol: 1. […] The present enzyme was added thereto to cause a reaction at a temperature of 25° C. By measuring the absorbance (410 nm) of p-nitroaniline released through the enzymatic reaction into the reaction solution, the amount (A410 nm) of p-nitroaniline released per mg each substrate per 1 minute was calculated.
# [3] = inhibitor 0.5 mM, preincubation 37° C., 1 hour, enzyme 1.0 μg/ml, 0.2 mM Z-Phe-Leu-Glu-pNA, pH 7.5, 25° C., read-out: Residual Activity (%)
# [4] = pH 7.5, read-out: Residual Activity (%)
# T1 sequence (Q03424 171-357): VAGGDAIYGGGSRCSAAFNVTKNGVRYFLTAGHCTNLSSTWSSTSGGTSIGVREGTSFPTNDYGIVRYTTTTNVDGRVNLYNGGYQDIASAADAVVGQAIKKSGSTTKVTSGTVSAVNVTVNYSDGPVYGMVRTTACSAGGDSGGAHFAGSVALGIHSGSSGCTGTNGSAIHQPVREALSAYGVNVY
compound,measurement,setting,value
C[C@H](NC(=O)[C@H](C)NC(=O)[C@H](C)NC(=O)OC(C)(C)C)C(=O)CCl [Boc--Ala--Ala--Ala--CK],remaining activity at 500 µM,SFase [1]; [3],102%
C[C@H](NC(=O)OC(C)(C)C)C(=O)N[C@@H](C)C(=O)N[C@@H](CC(=O)O)C(=O)Nc1ccc([N+](=O)[O-])cc1 [Boc--Ala--Ala--Asp--pNA] (Boc-Ala-Ala-Asp-pNA),amount (A410 nm) of p-nitroaniline released per mg per 1 minute,"SFase [2]; substrate 0.20 mM, DMF 2.0%",14.3 A 410 nm /mg/min
C[C@H](NC(=O)OC(C)(C)C)C(=O)N[C@@H](C)C(=O)N[C@@H](CCC(=O)O)C(=O)Nc1ccc([N+](=O)[O-])cc1 [Boc--Ala--Ala--Glu--pNA] (Boc-Ala-Ala-Glu-pNA),amount (A410 nm) of p-nitroaniline released per mg per 1 minute,"SFase [2]; substrate 0.20 mM, DMF 2.0%",126.2 A 410 nm /mg/min
CC(C)C[C@H](NC(=O)[C@H](Cc1ccccc1)NC(=O)OC(C)(C)C)C(=O)N[C@@H](CCC(=O)O)C(=O)CCl [Boc-Phe-Leu-Glu-chloromethylketone] (Boc-Phe-Leu-Glu-CH2Cl),inhibition of SFase (in words),SFase [1]; Table 2,completely inhibited
N=C(N)NCCC[C@H](NC(=O)c1ccccc1)C(=O)Nc1ccc([N+](=O)[O-])cc1 [Bz--Arg--pNA],amount (A410 nm) of p-nitroaniline released per mg per 1 minute,"SFase [2]; substrate 0.50 mM, DMSO 1.0%",0 A 410 nm /mg/min
O=C(N[C@@H](Cc1ccc(O)cc1)C(=O)Nc1ccc([N+](=O)[O-])cc1)c1ccccc1 [Bz--Tyr--pNA],amount (A410 nm) of p-nitroaniline released per mg per 1 minute,"SFase [2]; substrate 0.02 mM, DMF 2.0%",0 A 410 nm /mg/min
"O=C(O)CN(CCN(CC(=O)O)CC(=O)O)CC(=O)O [EDTA, ethylenediaminetetraacetic acid]",inhibition of SFase (in words),SFase [1],not inhibited
same,remaining activity at 100 µM,SFase [1]; [4],110%
same,remaining activity at 1000 µM,SFase [1]; [4],113%
same,remaining activity at 10000 µM,SFase [1]; [4],126%
CC(C)C[C@H](N)C(=O)Nc1ccc([N+](=O)[O-])cc1 [Leu--pNA],amount (A410 nm) of p-nitroaniline released per mg per 1 minute,"SFase [2]; substrate 2.00 mM, no solvent",0 A 410 nm /mg/min
"c1cnc2c(c1)ccc1cccnc12 [OP, o-phenanthroline]",inhibition of SFase (in words),SFase [1]; Table 2,not inhibited
same,remaining activity at 100 µM,"SFase [1]; inhibitor 0.1 mM, preincubation 37° C., 1 hour, enzyme 1.0 μg/ml, 0.2 mM Z-Phe-Leu-Glu-pNA, pH 7.5, 25° C., read-out: Residual Activity (%)",106%
same,remaining activity at 1000 µM,"SFase [1]; inhibitor 1.0 mM, preincubation 37° C., 1 hour, enzyme 1.0 μg/ml, 0.2 mM Z-Phe-Leu-Glu-pNA, pH 7.5, 25° C., read-out: Residual Activity (%)",108%
same,remaining activity at 10000 µM,"SFase [1]; inhibitor 10.0 mM, preincubation 37° C., 1 hour, enzyme 1.0 μg/ml, 0.2 mM Z-Phe-Leu-Glu-pNA, pH 7.5, 25° C., read-out: Residual Activity (%)",104%
C[C@H](NC(=O)CCC(=O)O)C(=O)N[C@@H](C)C(=O)N[C@@H](C)C(=O)Nc1ccc([N+](=O)[O-])cc1 [Suc--Ala--Ala--Ala--pNA],amount (A410 nm) of p-nitroaniline released per mg per 1 minute,"SFase [2]; substrate 0.20 mM, no solvent",0 A 410 nm /mg/min
"Cc1ccc(S(=O)(=O)N[C@@H](CCCCN)C(=O)CCl)cc1 [TLCK, Tosyl-Lys-chloromethylketone]",inhibition of SFase (in words),SFase [1],inhibited by neither
same,remaining activity at 500 µM,SFase [1]; [4],112%
"Cc1ccc(S(=O)(=O)N[C@@H](Cc2ccccc2)C(=O)CCl)cc1 [TPCK, Tosyl-Phe-chloromethylketone]",inhibition of SFase (in words),SFase [1]; Table 2,inhibited by neither
same,remaining activity at 500 µM,SFase [1]; [3],101%
CC(C)C[C@H](NC(=O)[C@H](C)NC(=O)[C@H](C)NC(=O)OCc1ccccc1)C(=O)Nc1ccc([N+](=O)[O-])cc1 [Z--Ala--Ala--Leu--pNA] (Cbz-Ala-Ala-Leu-pNA),amount (A410 nm) of p-nitroaniline released per mg per 1 minute,"SFase [2]; substrate 0.125 mM, DMF 5.0%",0 A 410 nm /mg/min
O=C(CNC(=O)OCc1ccccc1)N[C@@H](CO)C(=O)Nc1ccc([N+](=O)[O-])cc1 [Z--Gly--Ser--pNA] (Cbz-Gly-Ser-pNA),amount (A410 nm) of p-nitroaniline released per mg per 1 minute,"SFase [2]; substrate 0.20 mM, DMF 2.0%",0 A 410 nm /mg/min
CC(C)C[C@H](NC(=O)[C@H](Cc1ccccc1)NC(=O)OCc1ccccc1)C(=O)N[C@@H](CCC(=O)O)C(=O)CCl [Z--Phe--Leu--Glu--CK] (Cbz-Phe-Leu-Glu-CH2Cl),remaining activity at 500 µM,SFase [1]; [3],0%
"CC(C)C[C@H](NC(=O)[C@H](Cc1ccccc1)NC(=O)OCc1ccccc1)C(=O)N[C@@H](CCC(=O)O)C(=O)Nc1ccc([N+](=O)[O-])cc1 [Z--Phe--Leu--Glu--pNA, Z-Phe-Leu-Glu-pNA] (Cbz-Phe-Leu-Glu-pNA)",amount (A410 nm) of p-nitroaniline released per mg per 1 minute,"SFase [2]; substrate 0.20 mM, DMF 0.2%",319.1 A 410 nm /mg/min
O=C(N[C@@H](Cc1c[nH]c2ccccc12)C(=O)Nc1ccc([N+](=O)[O-])cc1)OCc1ccccc1 [Z--Trp--pNA],amount (A410 nm) of p-nitroaniline released per mg per 1 minute,"SFase [2]; substrate 0.20 mM, DMF 2.0%",0 A 410 nm /mg/min
